Experimental findings from patent US6495376B1, “Methods and compositions for regulating protein-protein interactions” (Beth Israel Deaconess Medical Center, priority 1999, dated 2002) are described below.

The target in assay [1] is EQPLpTPVTDL (Cdc25 Peptide). The assay can be described thus: Fluorescence anisotropy binding to fluorescein-labeled phosphorylated Cdc25 peptide. Particulars: GST-WW-domains. A general note: Fluorescence polarisation rises when a labelled molecule tumbles more slowly, as on binding a larger partner.
In assay [2] the test system is temperature-sensitive ptf1 yeast mutant (YPM2). In words: Rescue of temperature-sensitive ptf1 yeast mutant (in vivo function). In kind it is cell-based. Particulars: YPM2 cells, restrictive temperature. Here is the method: Given the essential role of the WW-domain in conferring Pin1-binding specificity in vitro, a critical question is whether this domain is important in vivo. To address this question, experiments using the PIN1 yeast homologue, ESS1/PTF1 were performed. ESS1/PTF1 is essential for cell growth and human Pin1 can carry out this essential function when transfected into yeast cells (Lu, K. P. et al., Nature 380:544 (1996); Hanes, S. D. et al., Yeast 5:55 (1989); Hani, J. et al., FEBS Lett. 365:198 (1995)). A temperature-sensitive ptf1 mutant strain, YPM2, grows at the permissive temperature (23° C.), but not at the restrictive temperature (30° C.) (Hanes, S. D. et al., Yeast 5:55 (1989); Hani, J. et al., FEBS Lett. 365:198 (1995)). This phenotype is completely rescued by a 1.5 kb PTF1 genomic fragment, which also contains the promoter and the 3′ processing sequence (FIG. 3). To insure that all human Pin1 proteins were expressed at physiological levels under normal regulation, the coding sequence of the fully functional ESS1/PTF1 gene in a Yepvector was replaced with the coding sequence of the human PIN1 (or Pin1 mutant) cDNA (FIG. 3) and transformed into a temperature-sensitive ptf1 strain. Transformants were selected on minimal media minus Leu at the permissive temperature (23° C.) and protein expression was detected by immunoblotting analysis using 12CA5 monoclonal antibody specific for the HA epitope tag inserted at the N-terminus. […] Those strains expressing similar levels of Pin1 and Pin1 mutants were grown at permissive and nonpermissive temperature.

The next assay relates to tau-promoted MT assembly. The assay can be described thus: Microtubule assembly light-scattering assay (turbidity at 350 nm). It is filed as biochemical. Conditions: 0.05 mg/ml protein, 0.05 mg/ml tau. As to the method: The effect of Pin1 on the ability of phosphorylated tau to promote MT assembly was determined using light-scattering assays (Bramblett, G. T. et al., Neuron 10:1089-1099(1993); Alonso, A. C. et al., Proc Natl Acad Sci USA 91:5562-5566 (1994); Busciglio, J. et al., Neuron 14:879-888 (1995)). Briefly, MTs were assembled from phosphocellulose purified bovine tubulin (Cytoskeleton, Inc) and stabilized by Taxol. The nonphosphorylated or Cdc2 phosphorylated recombinant tau (0.1 mg/ml) was incubated with Pin1 (0.1 mg/ml) at 35° C. for 5 min before adding to the MTs. Bound tau was isolated by centrifugation (50,000×g) at 25° C. for 20 min, followed by immunoblotting analysis using CP27 and Pin1 antibodies. The ability of tau to promote MT assembly was determined using well established light-scattering assays. Briefly, the assembly of MTs was initiated by incubating tubulin (2 mg/ml) with or without tau (0.05 mg/ml) in 80 mM PIPES, pH 6.8, 1 mM EGTA, 1 mM MgCl2, 1 mM GTP, 20% glycerol at 35° C. for 2 min. The mixture was then transferred to a 100 μl cuvet and the rate of the MT assembly was monitored at room temperature using the turbidity increase at 350 nm. To examine the effect of Pin1, Pin1 or its mutant (0.05 mg/ml) was pre-incubated with tau or Cdc2 phosphorylated tau (0.05 mg/ml) at 35° C. for 5 min before the MT assembly assays.
Sequence of tau-promoted MT assembly (P10636 45-219 isoform P10636-2 limits assumed): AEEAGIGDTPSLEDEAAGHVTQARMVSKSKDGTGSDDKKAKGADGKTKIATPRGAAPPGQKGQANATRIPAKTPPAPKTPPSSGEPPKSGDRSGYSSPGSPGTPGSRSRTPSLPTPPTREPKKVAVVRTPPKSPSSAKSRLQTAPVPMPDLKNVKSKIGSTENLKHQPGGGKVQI

Assay [3] concerns neurofibrillary tangles in AD brain sections. The assay can be described thus: Binding of recombinant Pin1 added onto brain sections, immunostaining. Further details: species or system human. Particulars: Pin1 at 0.5 μM. Here is the method: To further confirm that Pin1 has specific affinity for PHFs, recombinant Pin1 was added onto brain sections, washed, and then subjected to immunostaining using affinity purified Pin1 antibodies to localize bound Pin1. To localization exogenously added Pin1 in brain sections, 50 μm sections were cut from formalin fixed frontal cortex or hippocampus of human brains, endogenous peroxidase activity blocked with H2O2, followed by incubation with Pin1 at 0.5 μM. The sections were incubated with the mAb TG3 or anti-Pin1 antibodies that had been purified using GST-Pin1 glutathione beads, and visualized by the immunoperoxidase staining protocol, to detect endogenous Pin1, fixed brain sections were first microwaved in an antigen retrieval buffer (Biogenex), as described by the manufacturer, then subjected to immunostaining procedure.

As to “Pin1 WW-domain: N-terminal WW-domain (amino acids 1-54) of Pin1 (MADEEKLPPGWEKRMSRSSGRVYYFNHITNASQWERPSGNSSSGGKNGQGEPAR; left off: a dimerising Fc or GST)”, in assay [1], binding was characterised by a dissociation constant (Kd) of 2.2 µM.

As to “Pin1: wild-type human prolyl isomerase (PPIase) Pin1 with N-terminal WW-domain; tag cleaved in Table 2”, in assay [2], the “complementation of temperature-sensitive ptf1 phenotype (in words)” value was “fully complemented the temperature-sensitive phenotype”. Further, in the assay on tau-promoted MT assembly, the “effect on ability of Cdc2 phosphorylated tau to promote MT assembly” value is given as “restored the ability of Cdc2 phosphorylated tau to promote MT assembly” and the “effect on ability of nonphosphorylated tau to promote MT assembly” value is listed as “no effect”. Also, in assay [3], the “binding in AD brain sections” value was “strongly bound neurofibrillary tangles and neurites”.

For orientation: Kd means the equilibrium constant for the complex coming apart. A lower Kd goes with tighter binding.
